Where a SMILES comes first, the peptide text is derived from it.
Experiment: Motilin immunoreactivity concentration in plasma, half-life after intravenous administration (Example 8)
Conditions: male, SD, rat, in vivo, iv, 10 nmol/kg
Procedure: The experiment was carried out using rats into which polyethylene tube (PE-50 manufactured by Clay Adams) was inserted into thigh artery under an anesthetized condition with Nembutal. As to a test system, male SD strain rats (Nippon Charles River) of 7 weeks age were used where one group comprised 3 rats. Human motilin or a derivative thereof in a dose of 10 nmol/kg was administered into tail vein of the rat and the blood before the administration and until 60 minutes after the administration was periodically collected by a polyethylene tube inserted into the thigh artery. To the collected blood were added EDTA (manufactured by Dojin Laboratories) and aprotinin (manufactured by Bayer) as a stabilizer and an anti-coagulant, respectively and the plasma was separated therefrom by centrifugal separation. Motilin immunoreactivity concentration in plasma was measured by a competitive radioimmunoassay (RIA) (FIG. 8). At that time, a rabbit polyclonal antibody (#870623) which specifically recognizes the amino acid numbers 1 to 12 of native motilin shown by SEQ ID No: 102 was used as an antibody and, as a labeled compound, ^125I-[Tyr^7] human motilin was used.

Row | SMILES | half-life
1 | CC[C@H](C)[C@H](NC(=O)[C@@H]1CCCN1C(=O)[C@@H](NC(=O)[C@@H](N)Cc1ccccc1)C(C)C)C(=O)N[C@@H](Cc1ccccc1)C(=O)N[C@H](C(=O)N[C@@H](Cc1ccc(O)cc1)C(=O)NCC(=O)N[C@@H](CCC(=O)O)C(=O)N[C@@H](CC(C)C)C(=O)N[C@@H](CCC(N)=O)C(=O)N[C@@H](CCCNC(=N)N)C(=O)N[C@H](C(=O)N[C@@H](CCC(N)=O)C(=O)N[C@@H](CCC(N)=O)C(=O)N[C@@H](CCCNC(=N)N)C(=O)N[C@@H](CCCCN)C(=O)N[C@@H](CC(N)=O)C(=O)N[C@@H](CO)C(=O)N[C@@H](CCCCN)C(=O)N[C@@H](CCCCN)C(=O)N1CCC[C@H]1C(=O)N1CCC[C@H]1C(=O)N[C@@H](C)C(=O)N[C@@H](CCCCN)C(=O)N[C@@H](CC(C)C)C(=O)N[C@@H](CCC(N)=O)C(=O)N1CCC[C@H]1C(=O)N[C@@H](CCCNC(=N)N)C(=O)O)C(C)C)[C@@H](C)O [Chimeric motilin (T)(MG-17E/N)] (H-FVPIFTYGELQRVQQRKNSKKPPAKLQPR-OH; N-terminus and C-terminus assumed) | 5.47 min
2 | CC[C@H](C)[C@H](NC(=O)[C@@H]1CCCN1C(=O)[C@@H](NC(=O)[C@@H](N)Cc1ccccc1)C(C)C)C(=O)N[C@@H](Cc1ccccc1)C(=O)N[C@H](C(=O)N[C@@H](Cc1ccc(O)cc1)C(=O)NCC(=O)N[C@@H](CCC(=O)O)C(=O)N[C@@H](CC(C)C)C(=O)N[C@@H](CCC(N)=O)C(=O)N[C@@H](CCCNC(=N)N)C(=O)N[C@H](C(=O)N[C@@H](CCC(N)=O)C(=O)N[C@@H](CCC(N)=O)C(=O)N[C@@H](CCCNC(=N)N)C(=O)N[C@@H](CCCCN)C(=O)N[C@@H](CCC(N)=O)C(=O)N[C@@H](CO)C(=O)N[C@@H](CCCCN)C(=O)N[C@@H](CCCCN)C(=O)N1CCC[C@H]1C(=O)N1CCC[C@H]1C(=O)N[C@@H](C)C(=O)N[C@@H](CCCCN)C(=O)N[C@@H](CC(C)C)C(=O)N[C@@H](CCC(N)=O)C(=O)N1CCC[C@H]1C(=O)N[C@@H](CCCNC(=N)N)C(=O)O)C(C)C)[C@@H](C)O [Chimeric motilin (U)(MG-17E/Q)] (H-FVPIFTYGELQRVQQRKQSKKPPAKLQPR-OH; N-terminus and C-terminus assumed) | 5.66 min
3 | CC[C@H](C)[C@H](NC(=O)[C@@H]1CCCN1C(=O)[C@@H](NC(=O)[C@@H](N)Cc1ccccc1)C(C)C)C(=O)N[C@@H](Cc1ccccc1)C(=O)N[C@H](C(=O)N[C@@H](Cc1ccc(O)cc1)C(=O)NCC(=O)N[C@@H](CCC(=O)O)C(=O)N[C@@H](CC(C)C)C(=O)N[C@@H](CCC(N)=O)C(=O)N[C@@H](CCCNC(=N)N)C(=O)N[C@H](C(=O)N[C@@H](CCC(N)=O)C(=O)N[C@@H](CCC(N)=O)C(=O)N[C@@H](CCCNC(=N)N)C(=O)N[C@@H](CCCCN)C(=O)N[C@@H](CCC(=O)O)C(=O)N[C@@H](CO)C(=O)N[C@@H](CCCCN)C(=O)N[C@@H](CCCCN)C(=O)N[C@@H](C)C(=O)N[C@@H](CCCCN)C(=O)N[C@@H](CC(C)C)C(=O)N[C@@H](C)C(=O)N[C@@H](C)C(=O)N[C@@H](CC(C)C)C(=O)N[C@@H](CCCCN)C(=O)N[C@@H](C)C(=O)O)C(C)C)[C@@H](C)O [Chimeric motilin (V) (MG-dPPH1)] (H-FVPIFTYGELQRVQQRKESKKAKLAALKA-OH; N-terminus and C-terminus assumed) | 8.94 min

Second part, the compound after the results:

Row | half-life | SMILES
4 | 10.1 min | CC[C@H](C)[C@H](NC(=O)[C@@H]1CCCN1C(=O)[C@@H](NC(=O)[C@@H](N)Cc1ccccc1)C(C)C)C(=O)N[C@@H](Cc1ccccc1)C(=O)N[C@H](C(=O)N[C@@H](Cc1ccc(O)cc1)C(=O)NCC(=O)N[C@@H](CCC(=O)O)C(=O)N[C@@H](CC(C)C)C(=O)N[C@@H](CCC(N)=O)C(=O)N[C@@H](CCCNC(=N)N)C(=O)N[C@H](C(=O)N[C@@H](CCC(N)=O)C(=O)N[C@@H](CCC(N)=O)C(=O)N[C@@H](CCCNC(=N)N)C(=O)N[C@@H](CCCCN)C(=O)N[C@@H](CC(=O)O)C(=O)N[C@@H](CO)C(=O)N[C@@H](CCCCN)C(=O)N[C@@H](CCCCN)C(=O)N1CCC[C@H]1C(=O)N1CCC[C@H]1C(=O)N[C@@H](C)C(=O)N[C@@H](CCCCN)C(=O)N[C@@H](CC(C)C)C(=O)N[C@@H](CCC(N)=O)C(=O)N1CCC[C@H]1C(=O)N[C@@H](CCCNC(=N)N)C(=O)O)C(C)C)[C@@H](C)O [Chimeric motilin (V)(MG-ES/DS)] (H-FVPIFTYGELQRVQQRKDSKKPPAKLQPR-OH; N-terminus and C-terminus assumed)
5 | 9.94 min | CC[C@H](C)[C@H](NC(=O)[C@@H]1CCCN1C(=O)[C@@H](NC(=O)[C@@H](N)Cc1ccccc1)C(C)C)C(=O)N[C@@H](Cc1ccccc1)C(=O)N[C@H](C(=O)N[C@@H](Cc1ccc(O)cc1)C(=O)NCC(=O)N[C@@H](CCC(=O)O)C(=O)N[C@@H](CC(C)C)C(=O)N[C@@H](CCC(N)=O)C(=O)N[C@@H](CCCNC(=N)N)C(=O)N[C@H](C(=O)N[C@@H](CCC(N)=O)C(=O)N[C@@H](CCC(N)=O)C(=O)N[C@@H](CCCNC(=N)N)C(=O)N[C@@H](CCCCN)C(=O)N[C@@H](CCC(=O)O)C(=O)N[C@@H](CO)C(=O)N[C@@H](CCCCN)C(=O)N[C@@H](CCCCN)C(=O)N1CCC[C@H]1C(=O)N1CCC[C@H]1C(=O)N[C@@H](C)C(=O)N[C@@H](CCCCN)C(=O)N[C@@H](CC(C)C)C(=O)N[C@@H](C)C(=O)N[C@@H](C)C(=O)N[C@@H](CC(C)C)C(=O)N[C@@H](CCCCN)C(=O)N[C@@H](C)C(=O)O)C(C)C)[C@@H](C)O [Chimeric motilin (VI)(MG-H1)] (H-FVPIFTYGELQRVQQRKESKKPPAKLAALKA-OH; N-terminus and C-terminus assumed)
6 | 12.8 min | CC[C@H](C)[C@H](NC(=O)[C@@H]1CCCN1C(=O)[C@@H](NC(=O)[C@@H](N)Cc1ccccc1)C(C)C)C(=O)N[C@@H](Cc1ccccc1)C(=O)N[C@H](C(=O)N[C@@H](Cc1ccc(O)cc1)C(=O)NCC(=O)N[C@@H](CCC(=O)O)C(=O)N[C@@H](CC(C)C)C(=O)N[C@@H](CCC(N)=O)C(=O)N[C@@H](CCCNC(=N)N)C(=O)N[C@H](C(=O)N[C@@H](CCC(N)=O)C(=O)N[C@@H](CCC(N)=O)C(=O)N[C@@H](CCCNC(=N)N)C(=O)N[C@@H](CCCCN)C(=O)N[C@@H](CCC(=O)O)C(=O)N[C@@H](CO)C(=O)N[C@@H](CCCCN)C(=O)N[C@@H](CCCCN)C(=O)N1CCC[C@H]1C(=O)N1CCC[C@H]1C(=O)N[C@@H](C)C(=O)N[C@@H](CCC(=O)O)C(=O)N[C@@H](CC(C)C)C(=O)N[C@@H](C)C(=O)N[C@@H](C)C(=O)N[C@@H](CC(C)C)C(=O)N[C@@H](CCC(=O)O)C(=O)N[C@@H](C)C(=O)O)C(C)C)[C@@H](C)O [Chimeric motilin (VII)(MG-H3)] (H-FVPIFTYGELQRVQQRKESKKPPAELAALEA-OH; N-terminus and C-terminus assumed)

Source: US8551937B2, “Peptide having an extending action for half-life of object peptide in plasma” (priority 2008, dated 2013)
